Measurements as given in PubChem BioAssay (NCI).
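Step 1: Grow cells in 96-well plates. Step 2: Expose to compound for 48 hours at 5 concentrations. Step 3: Interpolate endpoints linearly; if unreached, use highest concentration. The concentration for 50% growth inhibition is given as GI50. TGI: concentration producing complete growth inhibition.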

Key:
Test in all cases: growth of human tumour cells (NCI), 48 h
[1] = system: CCRF-CEM leukemia
[2] = system: HCT-15 colon
[3] = system: U251 CNS
[4] = system: SK-MEL-28 melanoma
[5] = system: COLO 205 colon
[6] = system: LOX IMVI melanoma
[7] = system: HL-60(TB) leukemia
[8] = system: SF-539 CNS
[9] = system: UACC-257 melanoma
[10] = system: NCI-H23 lung

SMILES | TGI [1] | TGI [2] | TGI [3] | TGI [4] | TGI [5] | TGI [6] | TGI [7] | TGI [8] | TGI [9] | TGI [10] | GI50 [1] | GI50 [2] | GI50 [3] | GI50 [5] | GI50 [6] | GI50 [7] | GI50 [8] | GI50 [9] | GI50 [10] | GI50 [4]
Cc1nn(C)c(=O)c2nn(-c3ccccc3)c(C)c12 | > 100 µM | > 100 µM | > 100 µM | > 100 µM | > 100 µM | > 100 µM | > 100 µM | > 100 µM | > 100 µM | > 100 µM |  |  |  |  |  |  |  |  |  | 
COc1ccc(Nc2c[nH]c(=O)[nH]c2=O)cc1 | > 100 µM | > 100 µM | > 100 µM | > 100 µM | > 100 µM | > 100 µM | > 100 µM | > 100 µM | > 100 µM | > 100 µM |  |  |  |  |  |  |  |  |  | 
CC(C)(C)C(=O)OCC(COC(=O)C(C)(C)C)[N+](=O)[O-] | > 100 µM | > 100 µM | > 100 µM | > 100 µM | > 100 µM | > 100 µM | 79.8 µM | > 100 µM | > 100 µM | > 100 µM |  |  |  |  |  |  |  |  |  | 
C#CC#CC#CC#CC#CC#CC#CC#CCC1OC[C@H](COC(=O)O[C@@H](C(=O)O[C@H]2C[C@@]3(O)[C@@H](OC(=O)c4ccccc4)[C@@H]4[C@]5(OC(C)=O)CO[C@@H]5C[C@H](O)[C@@]4(C)C(=O)[C@H](OC(C)=O)C(=C2C)C3(C)C)[C@@H](NC(=O)c2ccccc2)c2ccccc2)O1 (stereo partly drawn) | > 33.3 µM | > 33.3 µM | > 33.3 µM |  | > 33.3 µM | > 33.3 µM | > 10.9 µM | 4.68 µM | > 33.3 µM | > 33.3 µM | 0.632 µM | 11.7 µM | 0.394 µM | 0.202 µM | 0.199 µM | 0.172 µM | 0.298 µM | > 8.84 µM | 0.888 µM | 
CC(C)(C)c1nnc2n(c1=O)N=CC(c1ccc(Br)cc1)S2 (stereo not drawn) | > 100 µM | 48 µM | 66.9 µM | > 100 µM | > 100 µM | 46.8 µM | > 100 µM | 50.9 µM | 69.4 µM | 46.8 µM | 31.3 µM | 20.1 µM | 26 µM | 39.2 µM | 22.5 µM | 39 µM | 19.7 µM | 30.5 µM | 19.8 µM | 34.2 µM
c1ccc2c(c1)ccc1c3ccccc3ccc21 | > 50 µM | > 50 µM | > 50 µM | > 50 µM | > 50 µM | > 50 µM | > 50 µM | > 50 µM | > 50 µM | > 50 µM | > 50 µM | > 50 µM | > 50 µM | > 50 µM | > 50 µM | > 50 µM | > 50 µM | > 50 µM | > 50 µM | > 50 µM
CC1(C)CC[C@]2(C(=O)O)CC[C@]3(C)[C@H](CC[C@@H]4[C@@]5(C)CCC(=O)C(C)(C)[C@@H]5CC[C@]43C)[C@H]2[C@H]1OC(=O)C(F)(F)F | 41.5 µM | 18.1 µM | 26.2 µM | 28.2 µM | 23.6 µM | 18.9 µM | 13.6 µM | 18.1 µM | 25.2 µM | 28.6 µM | 9.51 µM | 4.99 µM | 12.4 µM | 6.58 µM | 5.91 µM | 3.16 µM | 5.34 µM | 10.1 µM | 11 µM | 13.6 µM
COc1cc(/C=C2\CCc3ccccc3C2=O)cc(OC)c1OC | 75.1 µM | 34.5 µM | 29.7 µM | 28.4 µM | 30.7 µM | 24.4 µM | 45.5 µM | 30.8 µM | 27.4 µM | 29.2 µM |  |  |  |  |  |  |  |  |  | 
CS(=O)(=O)CS(=O)CS(=O)CS(=O)CC(NC(=O)CCC(N)C(=O)O)C(=O)O (stereo not drawn) | > 100 µM | > 100 µM | > 100 µM | > 100 µM | > 100 µM | > 100 µM | > 100 µM | > 100 µM | > 100 µM | > 100 µM |  |  |  |  |  |  |  |  |  | 
COc1ccc(-c2nn(-c3cccc(NC(=O)Nc4cccc(C(F)(F)F)c4)c3)cc2-c2ccncc2)cc1Cl | 7.59 µM | > 100 µM | 3.98 µM | 22.6 µM | 3.69 µM | > 100 µM | 6.26 µM | 6.45 µM | 10.8 µM | > 100 µM | 1.54 µM | 1.81 µM | 1.06 µM | 1.69 µM | 3.02 µM | 1.95 µM | 1.97 µM | 2.28 µM | 3.02 µM | 2.57 µM
COc1cccc2c(Nc3ccc(C(=O)NCCN(C)C)cc3)cc(-c3ccccc3)nc12 | 33.2 µM | 38.4 µM | 38.3 µM | > 100 µM | 26.5 µM | 33.9 µM | 39.9 µM | 37.1 µM | 29.9 µM | 45.6 µM | 8.86 µM | 16.4 µM | 18.8 µM | 11.2 µM | 18.1 µM | 14.9 µM | 19.1 µM | 15.7 µM | 20.3 µM | 37.1 µM
C=CCNc1cccc2c1C(=O)c1ccccc1C2(O)CC=C (stereo not drawn) | 52 µM | 57 µM | 39.2 µM | 93.3 µM | 36.1 µM | 35.9 µM | > 100 µM | 38.4 µM | 39 µM | 45.7 µM | 22.6 µM | 15.5 µM | 17.4 µM | 16.2 µM | 18.6 µM | 47.2 µM | 19.5 µM | 15 µM | 18.2 µM | 27 µM
O=C(CC(=O)c1ccccc1NC1=Cc2ccccc2C(=O)C1=O)C(=O)NC1=C(Cl)C(=O)c2ccccc2C1=O | 33.6 µM | 6.03 µM | 12.5 µM | 3.71 µM | 31 µM | 3.35 µM | 3.42 µM | 9.11 µM | 4.49 µM | 6.25 µM |  |  |  |  |  |  |  |  |  | 
CC(C)[C@@H](CS(=O)(=O)C(C)C)N1C(=O)[C@@](C)(CC(=O)O)C[C@H](c2cccc(Cl)c2)[C@H]1c1ccc(Cl)cc1 | 66.1 µM | > 69.3 µM | 25.3 µM | 61.2 µM | 34.4 µM | 21 µM | 46.8 µM | 35.9 µM | 6.82 µM | 56.8 µM | 18.2 µM | 15.3 µM | 7.86 µM | 14.7 µM | 0.485 µM | 17.7 µM | 14 µM | 0.381 µM | 17 µM | 15.5 µM
